The structures appear in SMILES notation.

Consider `Cc1cc(SC(C)C)c(NC(=O)CCCSc2nc3ccccc3s2)c(SC(C)C)n1` [Compound No. 853, 4-(benzothiazol-2-ylthio)-N-[2,4-bis(isopropylthio)-6-methyl-3-pyridyl]butanamide], for which the melting point (as a rule, the temperature of the solid-liquid transition) fell in the range of 116 to 117 °C.

`CCSc1cc(C)nc(SCC)c1NC(=O)CSc1nc2cccc(C(=O)OC)c2o1` [Compound No. 1427, 2-(7-methoxycarbonylbenzoxazol-2-ylthio)-N-[2,4-bis(ethylthio)-6-methyl-3-pyridyl]acetamide] displayed a melting point of 168 to 169 °C.

Turning to `Cc1cc(SC(C)C)c(NC(=O)CCCCCCCCSc2nc3ccccc3[nH]2)c(SC(C)C)n1` [Compound No. 868, 9-(benzimidazol-2-ylthio)-N-[2,4-bis(isopropylthio)-6-methyl-3-pyridyl]nonanamide], the melting point was 112 to 114 °C. The same measure for `CSc1nc(C)ccc1NC(=O)CCCCCSc1nc2ccccc2[nH]1` [compound 475, 6-(benzimidazol-2-ylthio)-N-(6-methyl-2-methylthio-3-pyridyl)hexanamide]: 138 to 140 °C; for `CSc1nc(SC)c(NC(=O)CCCCCSc2nc3ccccc3o2)c(SC)n1` [Compound No. 1401, 6-(benzoxazol-2-ylthio)-N-[2,4,6-tris(methylthio)-5-pyrimidyl]hexanamide]: 149 to 153 °C. For `CSc1nccc(C)c1NC(=O)CCCCCSc1nc2ccccc2o1` [Compound No. 155, 6-(benzoxazol-2-ylthio)-N-(4-methyl-2-methylthio-3-pyridyl)hexanamide] the value was 122 to 124 °C; for `Cc1cc(SC(C)C)c(NC(=O)CSc2nc3ccccc3s2)c(SC(C)C)n1` [Compound No. 851, 2-(benzothiazol-2-ylthio)-N-[2,4-bis(isopropylthio)-6-methyl-3-pyridyl]acetamide], 117 to 118 °C; for `Cc1cc(SC(C)C)c(NC(=O)CSc2nc3ccccc3[nH]2)c(SC(C)C)n1` [Compound No. 861, 2-(benzimidazol-2-ylthio)-N-[2,4-bis(isopropylthio)-6-methyl-3-pyridyl]acetamide], 223 to 224 °C.

Consider `CSc1cc(C)nc(SC)c1NC(=O)CCCCCCCSc1nc2ccccc2o1` [Compound No. 787, 8-(benzoxazol-2-ylthio)-N-[2,4-bis(methylthio)-6-methyl-3-pyridyl]octanamide], for which the melting point was in the range of 119 to 122 °C. The same measure for `CSc1cc(C)nc(SC)c1NC(=O)CCCCCCSc1nc2ccccc2[nH]1` [Compound No. 806, 7-(benzimidazol-2-ylthio)-N-[2,4-bis(methylthio)-6-methyl-3-pyridyl]heptanamide]: 189 to 192 °C. The same measure for `CSc1cc(C)nc(SC)c1NC(=O)CCCCCCCCSc1nc2ccccc2s1` [compound 798, 9-(benzothiazol-2-ylthio)-N-[2,4-bis(methylthio)-6-methyl-3-pyridyl]nonanamide]: 126 to 127 °C; for `CCSc1cc(C)nc(SCC)c1NC(=O)CCCCCCCCSc1nc2c(C)c(Cl)cc(C(C)C)c2o1` [Compound No. 1284, 9-(5-chloro-7-isopropyl-4-methylbenzoxazol-2-ylthio)-N-[2,4-bis(ethylthio)-6-methyl-3-pyridyl]nonanamide]: 93 to 94 °C.

Turning to `Cc1cc(SC(C)C)c(NC(=O)CCCCCSc2nc3cccc(C(F)(F)F)c3o2)c(SC(C)C)n1` [Compound No. 1291, 6-(7-trifluoromethylbenzoxazol-2-ylthio)-N-[2,4-bis(isopropylthio)-6-methyl-3-pyridyl]hexanamide], the melting point fell in the range of 102 to 103 °C. `CCSc1cc(C)nc(SCC)c1NC(=O)CCCCCCCSc1nc2ccccc2[nH]1` [Compound No. 837, 8-(benzoimidazol-2-ylthio)-N-[2,4-bis(ethylthio)-6-methyl-3-pyridyl]octanamide] came in with a melting point of 166 to 168 °C. Take `CCSc1cc(C)nc(SCC)c1NC(=O)CCCSc1nc2ccccc2s1` [Compound No. 823, 4-(benzothiazol-2-ylthio)-N-[2,4-bis(ethylthio)-6-methyl-3-pyridyl]butanamide]: the melting point is 119 to 120 °C.

`CSc1ncccc1NC(=O)CCCCCSc1nc2ccccc2s1` [compound 15, 6-(benzothiazol-2-ylthio)-N-(2-methylthio-3-pyridyl)hexanamide]: the melting point fell in the range of 118 to 119 °C. `CCSc1cc(C)nc(SCC)c1NC(=O)CCCCCCCSc1nc2ccccc2s1` [Compound No. 827, 8-(benzothiazol-2-ylthio)-N-[2,4-bis(ethylthio)-6-methyl-3-pyridyl]octanamide]: the melting point fell in the range of 94 to 96 °C. For `CSc1cc(C)nc(SC)c1NC(=O)CCCSc1nc2ccccc2[nH]1` [compound 803, 4-(benzimidazol-2-ylthio)-N-[2,4-bis(methylthio)-6-methyl-3-pyridyl]butanamide] the value was 177 to 179 °C. In the case of `Cc1cc(SC(C)C)c(NC(=O)CCCCCCSc2nc3ccccc3[nH]2)c(SC(C)C)n1` [Compound No. 866, 7-(benzoimidazol-2-ylthio)-N-[2,4-bis(isopropylthio)-6-methyl-3-pyridyl]heptanamide], the melting point is 118 to 121 °C. For `Cc1cc(SC(C)C)c(NC(=O)CCCCSc2nc3c(C)c(Cl)cc(C(C)C)c3o2)c(SC(C)C)n1` [Compound No. 1300, 5-(5-chloro-7-isopropyl-4-methylbenzoxazol-2-ylthio)-N-[2,4-bis(isopropylthio)-6-methyl-3-pyridyl]pentanamide] the value was 143 to 145 °C; for `CSc1cc(C)nc(SC)c1NC(=O)CSc1nc2cccc(C(F)(F)F)c2o1` [Compound No. 1247, 2-(7-trifluoromethylbenzoxazol-2-ylthio)-N-[2,4-bis(methylthio)-6-methyl-3-pyridyl]acetamide], 207 to 209 °C; for `CCSc1cc(C)nc(SCC)c1NC(=O)CSc1nc2cccc(C(F)(F)F)c2o1` [Compound No. 1267, 2-(7-trifluoromethylbenzoxazol-2-ylthio)-N-[2,4-bis(ethylthio)-6-methyl-3-pyridyl]acetamide], 182 to 183 °C.

`CCSc1cc(C)nc(SCC)c1NC(=O)CCCCSc1nc2cccc(C(F)(F)F)c2o1` [Compound No. 1270, 5-(7-trifluoromethylbenzoxazol-2-ylthio)-N-[2,4-bis(ethylthio)-6-methyl-3-pyridyl]pentanamide] had a melting point of 155 to 156 °C.

`CSc1cc(C)nc(SC)c1NC(=O)CCCSc1nc2ccccc2s1` [compound 793, 4-(benzothiazol-2-ylthio)-N-[2,4-bis(methylthio)-6-methyl-3-pyridyl]butanamide] yielded a melting point of 131 to 133 °C. The same measure for `CCSc1cc(C)nc(SCC)c1NC(=O)CCCCCSc1nc2ccccc2o1` [compound 815, 6-(benzoxazol-2-ylthio)-N-[2,4-bis(ethylthio)-6-methyl-3-pyridyl]hexanamide]: 100 to 103 °C; for `CCSc1cc(C)nc(SCC)c1NC(=O)CCCSc1nc2ccccc2[nH]1` [Compound No. 833, 4-(benzimidazol-2-ylthio)-N-[2,4-bis(ethylthio)-6-methyl-3-pyridyl]butanamide]: 160 to 161 °C; for `CSc1cc(C)nc(SC)c1NC(=O)CCCCCCCSc1nc2c(C)c(Cl)cc(C(C)C)c2o1` [Example 95, 8-(5-chloro-7-isopropyl-4-methylbenzoxazol-2-ylthio)-N-[2,4-bis(methylthio)-6-methyl-3-pyridyl]octanamide]: 128 to 131 °C.

`CSc1ncccc1NC(=O)CCCCCCCCSc1nc2ccccc2s1` [compound 18, 9-(benzothiazol-2-ylthio)-N-(2-methylthio-3-pyridyl)nonanamide] returned a melting point of 107 to 108 °C. As to `Cc1cc(SC(C)C)c(NC(=O)CCCCCCCSc2nc3ccccc3s2)c(SC(C)C)n1` [Compound No. 857, 8-(benzothiazol-2-ylthio)-N-[2,4-bis(isopropylthio)-6-methyl-3-pyridyl]octanamide], the melting point fell in the range of 107 to 108 °C. For `Cc1cc(SC(C)C)c(NC(=O)CCCCSc2nc3cccc(C(F)(F)F)c3o2)c(SC(C)C)n1` [Compound No. 1290, 5-(7-trifluoromethylbenzoxazol-2-ylthio)-N-[2,4-bis(isopropylthio)-6-methyl-3-pyridyl]pentanamide] the value was 118 to 120 °C; for `CSc1ncccc1NC(=O)CCCCCSc1nc2ccccc2o1` [compound 5, 6-(benzoxazol-2-ylthio)-N-(2-methylthio-3-pyridyl)hexanamide], 127 to 128 °C; for `CSc1cc(C)nc(SC)c1NC(=O)CCCCCSc1nc2ccccc2o1` [compound 785, 6-(benzoxazol-2-ylthio)-N-[2,4-bis(methylthio)-6-methyl-3-pyridyl]hexanamide], 120 to 121 °C. The same measure for `CSc1cc(C)nc(SC)c1NC(=O)CCCCCSc1nc2ncccc2o1` [Compound No. 1237, 6-(oxazolo[4,5-b]pyridin-2-ylthio)-N-[2,4-bis(methylthio)-6-methyl-3-pyridyl]hexanamide]: 132 to 133 °C; for `Cc1cc(SC(C)C)c(NC(=O)CCCCSc2nc3ccccc3s2)c(SC(C)C)n1` [Compound No. 854, 5-(benzothiazol-2-ylthio)-N-[2,4-bis(isopropylthio)-6-methyl-3-pyridyl]pentanamide]: 107 to 109 °C. `COC(=O)c1cccc2nc(SCCCCCCCCC(=O)Nc3c(SC)cc(C)nc3SC)oc12` [Compound No. 1240, 9-(7-methoxycarbonylbenzoxazol-2-ylthio)-N-[2,4-bis(methylthio)-6-methyl-3-pyridyl]nonanamide] registered a melting point of 126 to 128 °C. For `CCSc1cc(C)nc(SCC)c1NC(=O)CCCCCCCCSc1nc2ccccc2o1` [compound 818, 9-(benzoxazol-2-ylthio)-N-[2,4-bis(ethylthio)-6-methyl-3-pyridyl]nonanamide] the value was 84 to 87 °C; for `CSc1nc(C)nc(SC)c1NC(=O)CCCCCSc1nc2ccccc2o1` [Compound No. 1145, 6-(benzoxazole-2-ylthio)-N-[2-methyl-4,6-bis(methylthio)-5-pyrimidyl)hexanamide], 148 to 151 °C.

For the origin of these results see patent publication US7414066B2, “Amide compounds and medications containing the same technical field” (Kowa Company Ltd., priority 1999, dated 2008).
